Data published in patent publication US20250368628A1, “METHODS AND COMPOUNDS FOR MODULATING INHERITED GENETIC DISEASES” (Design Therapeutics, Inc., priority 2022, published 2025).
Read-outs that look alike come from different tables or passages of the source.

Legend:
F35T cells = experiment: Foci reduction in FECD (CAG10-Cy3 FISH, foci per nucleus); assay type: cell-based
Procedure: F35T cells were cultured in media containing Opti-MEM (ThermoFisher) supplemented with 8% FBS, 20 μg/mL ascorbic acid, […] CaCl2, 0.08% chondroitin sulfate, 1×Pen/Strep, 100 μg/mL bovine pituitary extract, 5 ng/mL epidermal growth factor, and 20 ng/mL nerve growth factor. Throughout the culture, cells were maintained in an incubator at 37° C. and 5% CO2. Media was refreshed every 48 hours. Once cells reached adequate confluency, they were harvested and seeded in 96 well plates with a density of 5000 cells per well in 200 μL of the supplemented Opti-MEM media. Cells were returned to the incubator and left to settle for 24 hours at 37° C. and 5% CO2. Cells were then treated in 8-point dose response with compounds or negative controls and incubated for 48 hours at 37° C. and 5% CO2. After treatment, cells were fixed with 4% PFA for 20 minutes at room temperature, followed by permeabilization with 70% ethanol. Cells were incubated at −20° C. for a minimum of 1 hour and maximum of 72 hours, after which the ethanol was removed, and cells were washed with PBS. Cells were rehydrated with 30% formamide and 2×SSC buffer for 10 minutes at room temperature. Cells were then incubated overnight at 37° C. in the hybridization solution containing 30% formamide, 2×SSC, 55 mg/mL dextran sulfate, 2.75 mg/mL bovine serum albumin, 0.2 μg/mL Herring sperm DNA, 1% vanadyl-ribonucleoside complex, and 0.05% 10 μM CAG10-Cy3 probe. Cells were washed twice with 30% formamide in 2×SSC, incubating the cells while shaking with the second wash at 37° C. and 200 rpm for 60 minutes. Cells were stained with 5 mg/mL DAPI 1:1000 in PBS, incubating at room temperature for 5 minutes. Cells were then washed with PBS and sealed with adhesive foil, with each well containing a final volume of 150 μL PBS. Cells were imaged on a Cytation 5 and analyzed on a foci per nucleus basis.

[1] = test system: Myotonic Dystrophy 1 affected patient fibroblasts (Coriel GM04602; 1600 CTG repeats); experiment: DM1 foci reduction assay (EC50 assay; CAG10-Cy3 FISH, foci per nucleus); assay type: cell-based
Procedure, shortened: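 GM04602 DM1 patient fibroblasts (1600 CTG repeats) seeded 24 h, then treated 48 h at 37 °C with an 8-point 1:3 dose series from 3 μM. Cells PFA-fixed, ethanol-permeabilized and hybridized overnight with 5 nM CAG10-Cy3 probe, DAPI counterstained. Imaged at 20×, 4 fields per well, as average foci per nucleus.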

[2] = F35T cells, 48 h treatment, foci per nucleus; read-out: FECD EC50, 48 h
[3] = Homo sapiens, Fibroblast; DM1 patient fibroblasts, 48 h treatment, foci per nucleus; read-out: DM1 EC50, 48 h
[4] = Homo sapiens, Fibroblast; DM1 patient fibroblasts, foci per nucleus, 48 h treatment; read-out: DM1 EC50, 48 h

SMILES	EC50 (F35T cells; [2]) [nM]	EC50 [1, 3] [nM]	EC50 (F35T cells; F35T cells, foci per nucleus, 48 h treatment; read-out: FECD EC50, 48 h) [nM]	EC50 [1, 4] [nM]
CC(=O)NCCOCCn1cc(NC(=O)c2nc(NC(=O)CCNC(=O)c3cc(NC(=O)c4nccn4C)cn3C)cn2C)cc1C(=O)NCCCC(=O)Nc1cn(C)c(C(=O)NCCC(=O)Nc2cc(C(=O)Nc3cn(C)c(C(=O)NCCC(=O)N4CCC(C#CC#CC5CCNCC5)CC4)n3)n(C)c2)n1 [Compound B-300]	< 100	< 100		
CC(=O)NCCOCCCn1cc(NC(=O)c2nc(NC(=O)CCNC(=O)c3cc(NC(=O)c4nccn4C)cn3C)cn2C)cc1C(=O)NCCCC(=O)Nc1cn(C)c(C(=O)NCCC(=O)Nc2cc(C(=O)Nc3cn(C)c(C(=O)NCCC(=O)N4CCC(C#CC#CC5CCN(C(C)=O)CC5)CC4)n3)n(C)c2)n1 [Compound B-305]	< 100	100 to 500		
CCCCCCn1cc(NC(=O)c2nc(NC(=O)CCNC(=O)c3cc(NC(=O)c4nccn4C)cn3C)cn2C)cc1C(=O)NCCCC(=O)Nc1cn(C)c(C(=O)NCCC(=O)Nc2cc(C(=O)Nc3cn(C)c(C(=O)NCCC(=O)NCCC)n3)n(C)c2)n1 [Compound B-323]	< 100	< 100		
CN1CCN(C(=O)CCNC(=O)c2nc(NC(=O)c3cc(NC(=O)CCNC(=O)c4nc(NC(=O)CCCNC(=O)c5cc(NC(=O)c6nc(NC(=O)CCNC(=O)c7cc(NC(=O)c8nccn8C)cn7C)cn6C)cn5CCCCO)cn4C)cn3C)cn2C)CC1 [Compound B-427]			< 100	100 to 500
CCOC(=O)CCNC(=O)c1nc(NC(=O)c2cc(NC(=O)CCNC(=O)c3nc(NC(=O)CCCNC(=O)c4cc(NC(=O)c5nc(NC(=O)CCNC(=O)c6cc(NC(=O)c7nccn7C)cn6C)cn5C)c[nH]4)cn3C)cn2C)cn1C [Compound B-395]	100 to 500	500 to 1000		
CCNC(=O)CCNC(=O)c1nc(NC(=O)c2cc(NC(=O)CCNC(=O)c3nc(NC(=O)CCCNC(=O)c4cc(NC(=O)c5nc(NC(=O)CCNC(=O)c6cc(NC(=O)c7nccn7C)cn6C)cn5C)cn4C)cn3C)cn2C)cn1C [Compound B-311]	< 100	100 to 500		
CCCNC(=O)CCNC(=O)c1nc(NC(=O)c2cc(NC(=O)CCNC(=O)c3nc(NC(=O)[C@H](N)CCNC(=O)c4cc(NC(=O)c5nc(NC(=O)CCNC(=O)c6cc(NC(=O)c7nccn7C)cn6C)cn5C)cn4C)cn3C)cn2C)cn1C [Compound B-3, N-(5-{[(3R)-3-amino-3-[(1-methyl-2-{[2-({1-methyl-5-[(1-methyl-2-{[2-(propylcarbamoyl)ethyl]carbamoyl}imidazol-4-yl)carbamoyl]pyrrol-3-yl}carbamoyl)ethyl]carbamoyl}imidazol-4-yl)carbamoyl]propyl]carbamoyl}-1-methylpyrrol-3-yl)-1-methyl-4-(3-{[1-methyl-4-(1-methylimidazole-2-amido)pyrrol-2-yl]formamido}propanamido)imidazole-2-carboxamide]	500 to 1000	< 100		
Cn1cc(NC(=O)c2nc(NC(=O)CCNC(=O)c3cc(NC(=O)c4nccn4C)cn3C)cn2C)cc1C(=O)NCCCC(=O)Nc1cn(C)c(C(=O)NCCC(=O)Nc2cc(C(=O)Nc3cn(C)c(C(=O)NCCC(=O)NCC#Cc4ccccc4)n3)n(C)c2)n1 [Compound B-136]	100 to 500	100 to 500		
Cn1cc(NC(=O)c2nc(NC(=O)CCNC(=O)c3cc(NC(=O)c4nccn4C)cn3C)cn2C)cc1C(=O)NCCCC(=O)Nc1cn(C)c(C(=O)NCCC(=O)Nc2cc(C(=O)Nc3cn(C)c(C(=O)NCCC(=O)N4CCC(C#CC#CC5CCOCC5)CC4)n3)n(C)c2)n1 [Compound B-380]	< 100	< 100		
CN(C)CCCNC(=O)c1nc(NC(=O)c2cc(NC(=O)CCNC(=O)c3nc(NC(=O)CCCNC(=O)c4cc(NC(=O)c5nc(NC(=O)CCNC(=O)c6cc(NC(=O)c7nccn7C)cn6C)cn5C)cn4C)cn3C)cn2C)cn1C [Compound B-108]	100 to 500	100 to 500		
Cn1cc(NC(=O)c2nc(NC(=O)CCNC(=O)c3cc(NC(=O)c4nccn4C)cn3C)cn2C)cc1C(=O)NCCCC(=O)Nc1cn(C)c(C(=O)NCCC(=O)Nc2cc(C(=O)Nc3cn(C)c(C(=O)NCCC(=O)NCCOCCOc4ccc(NC(=O)OCc5ccccc5)cc4)n3)n(C)c2)n1 [Compound B-15]	< 100	< 100		
Cn1cc(NC(=O)c2nc(NC(=O)CCNC(=O)c3cc(NC(=O)c4nccn4C)cn3C)cn2C)cc1C(=O)NCCCC(=O)Nc1cn(C)c(C(=O)NCCC(=O)Nc2cc(C(=O)Nc3cn(C)c(C(=O)NCCCN(C(=O)OC(C)(C)C)C(CO)CO)n3)n(C)c2)n1 [Compound B-390]	100 to 500	100 to 500		
Cn1cc(NC(=O)c2nc(NC(=O)CCNC(=O)c3cc(NC(=O)c4nccn4C)cn3C)cn2C)cc1C(=O)NCCCC(=O)Nc1cn(C)c(C(=O)NCCC(=O)Nc2cc(C(=O)Nc3cn(C)c(C(=O)NCCOCCOCCOCCN4CCC(C#CC#CC5CCNCC5)CC4)n3)n(C)c2)n1 [Compound B-107]	100 to 500	100 to 500		
Cn1cc(NC(=O)c2nc(NC(=O)CCNC(=O)c3cc(NC(=O)c4nccn4C)cn3C)cn2C)cc1C(=O)NCCCC(=O)Nc1cn(C)c(C(=O)NCCC(=O)Nc2cc(C(=O)Nc3cn(C)c(C(=O)NCCC(=O)N4CCC(C#CC#CC5CCNCC5)CC4)n3)n(C)c2)n1 [Compound B-126, 1-Methyl-4-(3-{[1-methyl-4-(1-methylimidazole-2-amido)pyrrol-2-yl]formamido}propanamido)-N-(1-methyl-5-{[3-({1-methyl-2-[(2-{[1-methyl-5-({1-methyl-2-[(3-oxo-3-{4-[4-(piperidin-4-yl)buta-1,3-diyn-1-yl]piperidin-1-yl}propyl)carbamoyl]imidazol-4-yl}carbamoyl)pyrrol-3-yl]carbamoyl}ethyl)carbamoyl]imidazol-4-yl}carbamoyl)propyl]carbamoyl}pyrrol-3-yl)imidazole-2-carboxamide]	< 100	< 100		
CCCNC(=O)c1nc(NC(=O)c2cc(NC(=O)CCNC(=O)c3nc(NC(=O)CC4(CNC(=O)c5cc(NC(=O)c6nc(NC(=O)CCNC(=O)c7cc(NC(=O)c8nccn8C)cn7C)cn6C)cn5C)CC4)cn3C)cn2C)cn1C [Compound B-435, 1-methyl-4-(3-{[1-methyl-4-(1-methylimidazole-2-amido)pyrrol-2-yl]formamido}propanamido)-N-[1-methyl-5-({[1-({[1-methyl-2-({2-[(1-methyl-5-{[1-methyl-2-(propylcarbamoyl)imidazol-4-yl]carbamoyl}pyrrol-3-yl)carbamoyl]ethyl}carbamoyl)imidazol-4-yl]carbamoyl}methyl)cyclopropyl]methyl}carbamoyl)pyrrol-3-yl]imidazole-2-carboxamide]				< 100
Cn1cc(NC(=O)c2nc(NC(=O)CCNC(=O)c3cc(NC(=O)c4nccn4C)cn3C)cn2C)cc1C(=O)NCCCC(=O)Nc1cn(C)c(C(=O)NCCC(=O)Nc2cc(C(=O)Nc3cn(C)c(C(=O)NCCCN4CCC(C#CC#CC5CCN(C(=O)OC(C)(C)C)CC5)CC4)n3)n(C)c2)n1 [Compound B-360]		< 100		
CC(C)CCC(=O)N1CCC(C#CC#CCNC(=O)CCNC(=O)c2nc(NC(=O)c3cc(NC(=O)CCNC(=O)c4nc(NC(=O)CCCNC(=O)c5cc(NC(=O)c6nc(NC(=O)CCNC(=O)c7cc(NC(=O)c8nccn8C)cn7C)cn6C)cn5C)cn4C)cn3C)cn2C)CC1 [Compound B-190]		> 1000		
CCCNC(=O)c1cc(NC(=O)c2nc(NC(=O)CCNC(=O)c3cc(NC(=O)c4nc(NC(=O)[C@@H](CCNC(=O)c5cc(NC(=O)c6nc(NC(=O)CCNC(=O)c7cc(NC(=O)c8nccn8C)cn7C)cn6C)cn5C)NC(C)=O)cn4C)cn3C)cn2C)cn1C [Compound B-7]		500 to 1000		
CCCNC(=O)CCNC(=O)c1nc(NC(=O)c2cc(NC(=O)CCNC(=O)c3nc(NC(=O)CCCNC(=O)c4cc(NC(=O)c5nc(NC(=O)CCNC(=O)c6cc(NC(=O)c7nccn7C)cn6C)cn5C)cn4C)cn3C)cn2CCCCC(=O)N(CCOCCOCCOCCOC)CCOCCOCCOCCOC)cn1C [Compound B-159]		> 1000		
COCCOCCOCCOCCN(CCOCCOCCOCCOC)C(=O)CCCCn1cc(NC(=O)c2nc(NC(=O)CCNC(=O)c3cc(NC(=O)c4nccn4C)cn3C)cn2C)cc1C(=O)NCCCC(=O)Nc1cn(C)c(C(=O)NCCC(=O)Nc2cc(C(=O)Nc3cn(C)c(C(=O)NCCC(=O)N4CCC(N5CCN(C(=O)OC(C)(C)C)CC5)CC4)n3)n(C)c2)n1 [Compound B-242]		> 1000		
CCN(CC)CCCC[C@H](NC(=O)C1CCN(C)CC1)C(=O)NCCOCCOCCOCCOCCOCCNC(=O)CCNC(=O)c1nc(NC(=O)c2cc(NC(=O)CCNC(=O)c3nc(NC(=O)CCCNC(=O)c4cc(NC(=O)c5nc(NC(=O)CCNC(=O)c6cc(NC(=O)c7nccn7C)cn6C)cn5C)cn4C)cn3C)cn2C)cn1C [Compound B-96]		100 to 500		
